Bridge positions count the residues as written; N and C are the ends. Peptide text beside a SMILES is read from it.
How the values were obtained:
mTEAD4 [1] = target: T1, mTEAD4 (Mus musculus, UniProt Q62296); experiment: SPR binding to immobilised mTEAD4; conditions: mTEAD4 amine-coupled on CM5, multi-cycle, steady-state fit 1:1 model, 10 mM HEPES 150 mM NaCl 0.05% Tween-20 pH 7.4, 0.3% DMSO, 20 °C, Fig. 1 values n = 1 replicate
T1 construct: Mouse TEAD4(210–427) cDNA fused with a 6x His-tag and a 3C protease cleavage site; 6x His-tag; 3C protease cleavage site; made in house; host or cells: E. coli BL21 DE3 RIL(K+)
T1 sequence (Q62296 210-427): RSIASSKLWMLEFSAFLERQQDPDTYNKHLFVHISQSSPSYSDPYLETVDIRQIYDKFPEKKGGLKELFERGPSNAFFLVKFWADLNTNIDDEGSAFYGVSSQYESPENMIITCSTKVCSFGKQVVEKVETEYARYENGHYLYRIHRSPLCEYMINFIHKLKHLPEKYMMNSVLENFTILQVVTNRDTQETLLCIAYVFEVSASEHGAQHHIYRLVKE
Description: (§1) Sensor chips Series S CM5 (Research grade) were obtained from GE Healthcare. Prior to use, the sensor chips were equilibrated at room temperature for 15 min to prevent water condensation on the detector side of the sensor chip surface. A running buffer was prepared composed of 10 mM HEPES, 150 mM NaCl, and 0.05% (w/v) Tween-20, pH 7.4, and the system was equilibrated at 20 °C using a flow rate of 30 µL min^−1 after docking of the sensor chip. Ligand binding experiments have been performed applying the concept of multi-cycle kinetics. A contact time of 45 s was selected, followed by a 6-min dissociation phase to allow for complete dissociation of the analyte prior to the next cycle. […] Typically, seven concentrations of the analytes have been examined applying a threefold dilution pattern with 30 µM as top concentration. For the analysis, five running buffer blanks were injected to equilibrate the instrument. […] The carboxyl-dextran surface was activated for 7 min with 0.05 M NHS and 0.2 M EDC, followed by an injection of the proteins in 10 mM MES pH 6.4 at a concentration of 30–50 µg mL^−1. […] This was followed by a deactivation of the residual esters by injecting a solution of 0.5 M ethanolamine pH 8.0 for 7 min before engaging in ligand binding experiments. Reference surfaces were prepared accordingly, omitting the injection of protein over the activated reference surface.

hTEAD1 = target: T2, hTEAD1 (Homo sapiens, UniProt P28347); experiment: Direct fluorescence polarization with hTEAD1; assay type: binding; conditions: direct FP, fluorescent cofactor 10 nM titrated with hTEAD1, 1 h; triplicates; read-out: FP hTEAD1 Kd of FITC labelled cofactor
T2 construct: CDNA of hTEAD1(209–426) fused with an N-terminal GST tag; GST (N); 6x His-tag (N); 3C protease cleavage site (N); made in house; host or cells: Escherichia coli BL21 DE3 RIL(K+)
T2 sequence (P28347 209-426): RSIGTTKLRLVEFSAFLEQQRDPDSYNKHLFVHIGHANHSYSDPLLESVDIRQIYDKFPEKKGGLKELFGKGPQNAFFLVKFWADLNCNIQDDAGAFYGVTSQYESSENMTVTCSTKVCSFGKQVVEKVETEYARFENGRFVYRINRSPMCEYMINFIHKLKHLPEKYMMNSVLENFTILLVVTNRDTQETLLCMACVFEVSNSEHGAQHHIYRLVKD
Description: Supplementary Figure 15│ Binding studies of hTEAD1 by fluorescence polarization. Dissociation constants were measured […]
The fluorescent cofactor (10 nM) are directly titrated with hTEAD1. After 1 hour of incubation, fluorescence polarization was measured, and a non-linear fitting was applied to the curves to determine the […]
In the competitive binding assay, first a complex with the fluorescent cofactor (10 nM) and hTEAD1 (100 nM) was formed and after 1 hour of incubation, the unlabelled peptide was titrated. After 1 hour of incubation, fluorescence polarization was measured, and a non-linear fitting was applied to the curves to determine the half maximal inhibitory concentration. (c) Competition assay […]
Mean ± SEM of triplicates were plotted for all data. Source data are provided as a Source Data file.
(1 picture or pasted object on this page, not shown here)

GST-hTEAD1 = target: T3, GST-hTEAD1 (Homo sapiens, UniProt P28347); experiment: SPR binding to immobilised GST-hTEAD1; conditions: GST-hTEAD1 amine-coupled on CM5, multi-cycle, steady-state fit 1:1 model, 10 mM HEPES 150 mM NaCl 0.05% Tween-20 pH 7.4, 0.3% DMSO, 20 °C, Fig. 1 values n = 1 replicate
T3 construct: CDNA of hTEAD1(209–426) fused with an N-terminal GST tag; made in house; host or cells: Escherichia coli BL21 DE3 RIL(K+)
T3 sequence (P28347 209-426): as above
Description: as §1

mTEAD4 [2] = target: T1, mTEAD4; experiment: Competition fluorescence polarization with mTEAD4 (alanine scan); assay type: binding; conditions: Ac-peptide vs FITC-labelled tracer peptide 10 nM, mTEAD4 400 nM, 1 h
Description: Competition FP: N-terminally acetylated peptides were diluted 1:1 in a 384-well plate (5 μL, 75 μM−9 pM). Ten microlitres of a mixture (1:1) of mTEAD4 and FITC-labelled peptide was added (final concentrations: acetylated peptides = 50 μM−6 pM; mTEAD4 protein = 400 nM; FITC-labelled tracer peptide = 10 nM). After 1 h, FP was measured (λ(ex) = […]). IC50 was determined from the binding curve with GraphPad from Prism.

[3] = Circular dichroism, calculated helicity; assay type: physicochemical; conditions: 10 mM sodium phosphate pH 7.4, 75 to 10 µM peptide, CDNN software PEPFIT mode, unbound peptide
Description: The spectra were obtained using a Jasco J-715 and a cuvette 0.1 mm. Represented CD spectra are an average of five measurements done between λ = 190 and 300 nm with a continuous scan mode, 50 nm min^−1 scan speed and data point every 1 nm. The α-helicity was calculated using CDNN software using the PEPFIT mode[42].

Row | Kd (mTEAD4 [1]) [µM] | Kd (hTEAD1) [µM] | Kd (GST-hTEAD1) [µM] | IC50 (mTEAD4 [2]) [µM] | Helicity (CD) [3] [%] | Compound
1 | 2 | 0.017 ± 0.0025 | 1.4 | – | – | Ac-DPVVEEHFRRSLGKNYKEPEPAPNSVSITGSVDDHFAKALGDTWLQIKAAKDSA-NH2 (N-terminus and C-terminus assumed) [compound 1]
2 | > 100 | – | > 100 | > 100 | – | CC[C@H](C)[C@@H]1NC(=O)[C@H](CCC(N)=O)NC(=O)[C@H](CC(C)C)NC(=O)[C@H](Cc2c[nH]c3ccccc23)NC(=O)[C@H]([C@@H](C)O)NC(=O)[C@H](CC(=O)O)NC(=O)CNC(=O)[C@H](CC(C)C)NC(=O)[C@H](C)NC(=O)[C@H](CCCCN)NC(=O)[C@H](C)NC(=O)[C@H](Cc2ccccc2)NC(=O)[C@H](C)NC(=O)[C@H](CC(=O)O)NC(=O)[C@@H](NC(=O)[C@@H](NC(=O)[C@H](CO)NC(C)=O)C(C)C)CCC(=O)NCCCC[C@@H](C(=O)N[C@@H](C)C(=O)N[C@@H](C)C(N)=O)NC1=O [compound 17] (Ac-SVEDAFAKALGDTWLQIKAA-NH2; lactam 3-18)
3 | > 100 | – | > 100 | – | < 5 | CC(=O)N[C@@H](CO)C(=O)N[C@H](C(=O)N[C@@H](CC(=O)O)C(=O)N[C@@H](CC(=O)O)C(=O)N[C@@H](Cc1c[nH]cn1)C(=O)N[C@@H](Cc1ccccc1)C(=O)N[C@@H](C)C(=O)N[C@@H](CCCCN)C(=O)N[C@@H](C)C(=O)N[C@@H](CC(C)C)C(=O)NCC(N)=O)C(C)C [compound 5] (Ac-SVDDHFAKALG-NH2)
4 | > 100 | – | > 100 | > 50 | – | CC[C@H](C)[C@@H]1NC(=O)[C@H](CCC(N)=O)NC(=O)[C@H](CC(C)C)NC(=O)[C@H](Cc2c[nH]c3ccccc23)NC(=O)[C@H]([C@@H](C)O)NC(=O)[C@H](CC(=O)O)NC(=O)CNC(=O)[C@H](CC(C)C)NC(=O)[C@H](C)NC(=O)[C@H](CCCCN)NC(=O)[C@H](C)NC(=O)[C@H](C)NC(=O)[C@H](Cc2c[nH]cn2)NC(=O)[C@H](CC(=O)O)NC(=O)[C@@H](NC(=O)[C@@H](NC(=O)[C@H](CO)NC(C)=O)C(C)C)CCC(=O)NCCCC[C@@H](C(=O)N[C@@H](C)C(=O)N[C@@H](C)C(N)=O)NC1=O [compound 18] (Ac-SVEDHAAKALGDTWLQIKAA-NH2; lactam 3-18)
5 | > 100 | – | > 100 | > 100 | – | CC[C@H](C)[C@@H]1NC(=O)[C@H](CCC(N)=O)NC(=O)[C@H](CC(C)C)NC(=O)[C@H](Cc2c[nH]c3ccccc23)NC(=O)[C@H]([C@@H](C)O)NC(=O)[C@H](C)NC(=O)CNC(=O)[C@H](CC(C)C)NC(=O)[C@H](C)NC(=O)[C@H](CCCCN)NC(=O)[C@H](C)NC(=O)[C@H](Cc2ccccc2)NC(=O)[C@H](Cc2c[nH]cn2)NC(=O)[C@H](CC(=O)O)NC(=O)[C@@H](NC(=O)[C@@H](NC(=O)[C@H](CO)NC(C)=O)C(C)C)CCC(=O)NCCCC[C@@H](C(=O)N[C@@H](C)C(=O)N[C@@H](C)C(N)=O)NC1=O [compound 21] (Ac-SVEDHFAKALGATWLQIKAA-NH2; lactam 3-18)

— article PMC7591920, “A protein tertiary structure mimetic modulator of the Hippo signalling pathway” (Nature Communications, 2020)
